Calls of active or inactive are those of the source. The rule behind the calls is not given here.
Key:
Hordeum vulgare [1] = assay: Induction of resistance to Blumeria graminis f. sp. hordei isolate W14 infection in Hordeum vulgare cv. Edamai 9 (barley) assessed as upregulation of leaf-specific thionin gene using Contig1570_s_at as probe at 10 mg/l after 8 hr by microarray analysis relative to untreated control; type: functional
Hordeum vulgare [2] = assay: (§1) Induction of resistance to Blumeria graminis f. sp. hordei isolate W14 infection in Hordeum vulgare cv. Edamai 9 (barley) assessed as upregulation of stress-induced gene using Contig3426_at as probe at 10 mg/l after 8 hr by microarray analysis relative to untreated control; type: functional
Hordeum vulgare [3] = assay: Induction of resistance to Blumeria graminis f. sp. hordei isolate W14 infection in Hordeum vulgare cv. Edamai 9 (barley) assessed as upregulation of leaf-specific thionin gene using Contig1580_x_at as probe at 10 mg/l after 8 hr by microarray analysis relative to untreated control; type: functional
Hordeum vulgare [4] = assay: Induction of resistance to Blumeria graminis f. sp. hordei isolate W14 infection in Hordeum vulgare cv. Edamai 9 (barley) assessed as downregulation of Oxalate oxidase gene using Contig3017_at as probe at 10 mg/l after 8 hr by microarray analysis relative to untreated control; type: functional
Hordeum vulgare [5] = assay: Induction of resistance to Blumeria graminis f. sp. hordei isolate W14 infection in Hordeum vulgare cv. Edamai 9 (barley) assessed as downregulation of Peroxidase gene using HVSMEm0005P05r2_at as probe at 10 mg/l after 8 hr by microarray analysis relative to untreated control; type: functional
Hordeum vulgare [6] = assay: Induction of resistance to Blumeria graminis f. sp. hordei isolate W14 infection in Hordeum vulgare cv. Edamai 9 (barley) assessed as downregulation of Pathogenesis-related protein 4 gene using Contig2550_x_at as probe at 10 mg/l after 8 hr by microarray analysis relative to untreated control; type: functional
Blumeria hordei [7] = assay: Antifungal activity against Blumeria graminis f. sp. hordei isolate W14 assessed as conidial germination at 10 mg/l after 48 hr (reference value: 47.3%); type: functional
Hordeum vulgare [8] = assay: Induction of resistance to Blumeria graminis f. sp. hordei isolate W14 infection in Hordeum vulgare cv. Edamai 9 (barley) assessed as upregulation of stress-induced gene using Contig3427_at as probe at 10 mg/l after 8 hr by microarray analysis relative to untreated control; type: functional
Hordeum vulgare [9] = assay: Induction of resistance to Blumeria graminis f. sp. hordei isolate W14 infection in Hordeum vulgare cv. Edamai 9 (barley) assessed as downregulation of Pathogenesis-related protein gene using Contig4054_s_at as probe at 10 mg/l after 8 hr by microarray analysis relative to untreated control; type: functional
Hordeum vulgare [10] = assay: Induction of resistance to Blumeria graminis f. sp. hordei isolate W14 infection in Hordeum vulgare cv. Edamai 9 (barley) assessed as upregulation of leaf-specific thionin gene using Contig1567_x_at as probe at 10 mg/l after 8 hr by qRT-PCR analysis relative to untreated control; type: functional
Blumeria hordei [11] = assay: Antifungal activity against Blumeria graminis f. sp. hordei isolate W14 infected barley cv. Edamai 9 assessed as disease index at 10 mg/l after 15 days (reference value: 76.5%); type: functional
Hordeum vulgare [12] = assay: Induction of resistance to Blumeria graminis f. sp. hordei isolate W14 infection in Hordeum vulgare cv. Edamai 9 (barley) assessed as upregulation of leaf-specific thionin gene using Contig1582_x_at as probe at 10 mg/l after 8 hr by microarray analysis relative to untreated control; type: functional
Hordeum vulgare [13] = assay: as §1, with “Xyloglucan endotransglycosylase-like protein” for “stress-induced”, “Contig2669_at” for “Contig3426_at”; type: functional
Hordeum vulgare [14] = assay: Induction of resistance to Blumeria graminis f. sp. hordei isolate W14 infection in Hordeum vulgare cv. Edamai 9 (barley) assessed as upregulation of leaf-specific thionin gene using Contig1576_at as probe at 10 mg/l after 8 hr by microarray analysis relative to untreated control; type: functional
Hordeum vulgare [15] = assay: Induction of localised resistance to Blumeria graminis f. sp. hordei isolate W14 infection in Hordeum vulgare cv. Edamai 9 (barley) assessed as decrease in colonies on leaf at 10 mg/l up to 216 hr relative to untreated-control; type: functional, organism-based
Hordeum vulgare [16] = assay: Induction of resistance to Blumeria graminis f. sp. hordei isolate W14 infection in Hordeum vulgare cv. Edamai 9 (barley) assessed as upregulation of leaf-specific thionin gene using Contig1570_s_at as probe at 10 mg/l after 8 hr by qRT-PCR analysis relative to untreated control; type: functional
Hordeum vulgare [17] = assay: Induction of resistance to Blumeria graminis f. sp. hordei isolate W14 infection in Hordeum vulgare cv. Edamai 9 (barley) assessed as downregulation of Bsi1 protein gene using HD04G07u_s_at as probe at 10 mg/l after 8 hr by microarray analysis relative to untreated control; type: functional
Hordeum vulgare [18] = assay: Induction of systemic resistance to Blumeria graminis f. sp. hordei isolate W14 infection in Hordeum vulgare cv. Edamai 9 (barley) assessed as decrease in colonies on leaf at 10 mg/l up to 216 hr relative to untreated-control; type: functional, organism-based
Hordeum vulgare [19] = assay: Induction of resistance to Blumeria graminis f. sp. hordei isolate W14 infection in Hordeum vulgare cv. Edamai 9 (barley) assessed as upregulation of Phytoene synthase E1 gene using Contig13305_at as probe at 10 mg/l after 8 hr by microarray analysis relative to untreated control; type: functional
Hordeum vulgare [20] = assay: Induction of resistance to Blumeria graminis f. sp. hordei isolate W14 infection in Hordeum vulgare cv. Edamai 9 (barley) assessed as upregulation of leaf-specific thionin gene using Contig1567_x_at as probe at 10 mg/l after 8 hr by microarray analysis relative to untreated control; type: functional
Blumeria hordei [21] = assay: Antifungal activity against Blumeria graminis f. sp. hordei isolate W14 infected barley cv. Edamai 9 assessed as conidial germination at 10 mg/l after 15 days (reference value: 92.4%); type: functional

**Q.** Which “fold change (FC)” value (Hordeum vulgare [1]) does the source give for `COc1cc(O)c2c(c1)C(=O)c1cc(C)cc(O)c1C2=O` [PHYSCION] here?
**A.** Its value is 4.3.

**Q.** And the “fold change (FC)” value (Hordeum vulgare [2])?
**A.** Its value is 3.04.

**Q.** And the “fold change (FC)” value (Hordeum vulgare [3])?
**A.** The value was 4.74.

**Q.** And the “fold change (FC)” value (Hordeum vulgare [4])?
**A.** The value was -2.87.

**Q.** And the “fold change (FC)” value (Hordeum vulgare [5])?
**A.** Its value is -2.96.

**Q.** And the “fold change (FC)” value (Hordeum vulgare [6])?
**A.** Its value is -2.34.

**Q.** And the Activity (Blumeria hordei [7])?
**A.** The Activity was 56.6%.

**Q.** What about the “fold change (FC)” value (Hordeum vulgare [8]) of the same molecule?
**A.** The value was 2.41.

**Q.** What about the “fold change (FC)” value (Hordeum vulgare [9]) of the same molecule?
**A.** Its value is -2.94.

**Q.** What about the “fold change (FC)” value (Hordeum vulgare [10]) of the same molecule?
**A.** The value was 4.77.

**Q.** What about the PDI (Blumeria hordei [11]) of the same molecule?
**A.** Its PDI is 4.4%.

**Q.** What about the “fold change (FC)” value (Hordeum vulgare [12]) of the same molecule?
**A.** The value was 4.26.

**Q.** What about the “fold change (FC)” value (Hordeum vulgare [13]) of the same molecule?
**A.** The value was 2.44.

**Q.** What about the “fold change (FC)” value (Hordeum vulgare [14]) of the same molecule?
**A.** The value was 9.34.

**Q.** What about the Activity (Hordeum vulgare [15]) of the same molecule?
**A.** The Activity was “Active”.

**Q.** What about the “fold change (FC)” value (Hordeum vulgare [16]) of the same molecule?
**A.** Its value is 5.61.

**Q.** What about the “fold change (FC)” value (Hordeum vulgare [17]) of the same molecule?
**A.** Its value is -2.77.

**Q.** And the Activity (Hordeum vulgare [18])?
**A.** Its Activity is “inactive”.

**Q.** And the “fold change (FC)” value (Hordeum vulgare [19])?
**A.** Its value is 2.09.

**Q.** What about the “fold change (FC)” value (Hordeum vulgare [20]) of the same molecule?
**A.** The value was 19.91.

**Q.** And the Activity (Blumeria hordei [21])?
**A.** The Activity was 4.5%.

From ChEMBL document CHEMBL3044754, “Physcion, a natural anthraquinone derivative, enhances the gene expression of leaf-specific thionin of barley against Blumeria graminis” (2010)
